# Read-outs that look alike come from different tables or passages of the source.
# Assays:
# Format in all cases: biochemical
# IRAK1 = IRAK1 (Homo sapiens, UniProt P51617); experiment: Kinase profiling IRAK1; conditions: read-out: residual kinase activity, IRAK1
# From the text: (§1) Any value less that 25 is considered to be highly significant inhibition.
# PHK = experiment: Kinase profiling PHK; conditions: 100 micromolar inhibitor concentration; 100 is no change
# From the text: as §1
# DDR2 = molecular target: T1, DDR2 (Homo sapiens, UniProt Q16832); experiment: Kinase profiling DDR2; conditions: read-out: residual kinase activity, DDR2
# T1 sequence (Q16832 22-855): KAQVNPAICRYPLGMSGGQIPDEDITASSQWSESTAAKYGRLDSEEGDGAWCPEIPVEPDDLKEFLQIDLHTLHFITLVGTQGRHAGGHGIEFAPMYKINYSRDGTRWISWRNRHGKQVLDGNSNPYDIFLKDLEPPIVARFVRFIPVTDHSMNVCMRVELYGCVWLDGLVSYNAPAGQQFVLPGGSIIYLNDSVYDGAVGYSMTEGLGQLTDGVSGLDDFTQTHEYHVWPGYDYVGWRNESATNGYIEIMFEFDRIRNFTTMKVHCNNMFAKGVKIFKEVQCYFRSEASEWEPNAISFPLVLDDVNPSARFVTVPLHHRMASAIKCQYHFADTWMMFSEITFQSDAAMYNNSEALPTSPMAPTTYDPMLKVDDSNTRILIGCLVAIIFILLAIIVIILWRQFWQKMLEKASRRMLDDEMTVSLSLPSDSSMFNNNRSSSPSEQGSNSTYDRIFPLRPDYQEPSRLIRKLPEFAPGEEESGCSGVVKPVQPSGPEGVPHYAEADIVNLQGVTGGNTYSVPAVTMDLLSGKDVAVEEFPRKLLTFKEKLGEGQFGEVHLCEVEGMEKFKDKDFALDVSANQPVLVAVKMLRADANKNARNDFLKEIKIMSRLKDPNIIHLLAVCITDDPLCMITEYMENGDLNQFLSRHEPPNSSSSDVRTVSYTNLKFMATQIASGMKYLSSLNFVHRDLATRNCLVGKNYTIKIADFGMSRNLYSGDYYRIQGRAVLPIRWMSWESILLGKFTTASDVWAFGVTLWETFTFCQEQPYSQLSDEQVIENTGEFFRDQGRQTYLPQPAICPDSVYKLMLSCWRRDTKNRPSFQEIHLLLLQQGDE
# From the text: as §1
# Aurora A = molecular target: T2, Aurora A (Homo sapiens, UniProt O14965); experiment: Kinase profiling Aurora A; conditions: read-out: residual kinase activity, Aurora A
# T2 sequence (O14965 1-403): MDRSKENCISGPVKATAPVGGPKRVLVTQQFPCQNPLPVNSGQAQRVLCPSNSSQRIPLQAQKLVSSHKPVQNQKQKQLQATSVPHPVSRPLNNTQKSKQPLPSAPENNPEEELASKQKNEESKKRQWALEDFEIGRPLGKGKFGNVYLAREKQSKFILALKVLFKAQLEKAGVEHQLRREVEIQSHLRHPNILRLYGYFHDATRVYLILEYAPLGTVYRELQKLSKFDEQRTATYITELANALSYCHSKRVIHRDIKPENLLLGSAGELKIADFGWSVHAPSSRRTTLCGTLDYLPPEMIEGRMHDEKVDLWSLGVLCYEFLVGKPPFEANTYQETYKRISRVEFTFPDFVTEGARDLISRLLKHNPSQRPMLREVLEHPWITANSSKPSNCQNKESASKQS
# From the text: as §1
# MKK2 = MKK2 (Homo sapiens, UniProt P36507); experiment: Kinase profiling MKK2; conditions: for remaining activity at 100 µM: read-out: residual kinase activity, MKK2
# From the text: as §1
# IRR = IRR (Homo sapiens, UniProt P14616); experiment: Kinase profiling IRR; conditions: read-out: residual kinase activity, IRR
# From the text: as §1
# PAK6 = PAK6 (Homo sapiens, UniProt Q9NQU5); experiment: Kinase profiling PAK6; conditions: read-out: residual kinase activity, PAK6
# From the text: as §1
# p38d MAPK = molecular target: T3, p38d MAPK (Homo sapiens, UniProt O15264); experiment: Kinase profiling p38d MAPK; conditions: for remaining activity at 100 µM: read-out: residual kinase activity, p38d MAPK
# T3 sequence (O15264 1-365): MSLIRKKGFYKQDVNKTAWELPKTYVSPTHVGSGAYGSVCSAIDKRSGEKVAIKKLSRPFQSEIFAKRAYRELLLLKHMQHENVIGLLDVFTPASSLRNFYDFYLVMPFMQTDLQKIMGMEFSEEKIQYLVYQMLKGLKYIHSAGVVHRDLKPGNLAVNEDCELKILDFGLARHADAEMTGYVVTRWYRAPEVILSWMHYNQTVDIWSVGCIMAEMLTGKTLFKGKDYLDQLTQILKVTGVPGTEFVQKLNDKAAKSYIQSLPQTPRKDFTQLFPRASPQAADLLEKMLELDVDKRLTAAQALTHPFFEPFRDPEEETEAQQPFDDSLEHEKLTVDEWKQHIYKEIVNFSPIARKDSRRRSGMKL
# From the text: as §1
# JNK2 = JNK2 (Homo sapiens, UniProt P45984); experiment: Kinase profiling JNK2; conditions: for remaining activity at 100 µM: read-out: residual kinase activity, JNK2
# From the text: as §1
# IKKe = molecular target: T4, IKKe (Homo sapiens, UniProt Q14164); experiment: Kinase profiling IKKe; conditions: read-out: residual kinase activity, IKKe
# T4 sequence (Q14164 1-716): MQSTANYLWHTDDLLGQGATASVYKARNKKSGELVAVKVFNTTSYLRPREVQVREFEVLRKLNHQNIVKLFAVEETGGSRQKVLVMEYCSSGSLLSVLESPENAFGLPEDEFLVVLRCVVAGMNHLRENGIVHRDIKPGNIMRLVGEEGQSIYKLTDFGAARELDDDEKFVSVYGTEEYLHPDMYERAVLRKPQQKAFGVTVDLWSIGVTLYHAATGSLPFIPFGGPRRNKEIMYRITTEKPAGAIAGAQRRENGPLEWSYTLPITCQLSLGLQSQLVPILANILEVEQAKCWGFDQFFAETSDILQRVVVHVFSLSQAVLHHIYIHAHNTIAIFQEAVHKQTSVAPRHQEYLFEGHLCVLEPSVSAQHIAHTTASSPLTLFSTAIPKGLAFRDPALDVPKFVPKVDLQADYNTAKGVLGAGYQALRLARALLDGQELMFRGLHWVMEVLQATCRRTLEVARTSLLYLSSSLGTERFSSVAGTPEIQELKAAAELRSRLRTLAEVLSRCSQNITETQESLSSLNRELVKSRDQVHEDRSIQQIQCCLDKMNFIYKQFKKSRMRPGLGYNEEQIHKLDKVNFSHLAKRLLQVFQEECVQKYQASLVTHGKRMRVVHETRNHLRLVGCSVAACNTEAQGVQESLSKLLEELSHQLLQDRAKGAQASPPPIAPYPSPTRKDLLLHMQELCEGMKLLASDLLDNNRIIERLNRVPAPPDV
# From the text: as §1
# TrkA = TrkA (Homo sapiens, UniProt P04629); experiment: Kinase profiling TrkA; conditions: for remaining activity at 100 µM: read-out: residual kinase activity, TrkA
# From the text: as §1
# PAK2 = PAK2 (Homo sapiens, UniProt Q13177); experiment: Kinase profiling PAK2; conditions: read-out: residual kinase activity, PAK2
# From the text: as §1
# [1] = 100 micromolar inhibitor concentration, 100 is no change
# [2] = 100 micromolar inhibitor, 100 = no change
# Sequence of JNK2 (P45984 whole entry, species assumed): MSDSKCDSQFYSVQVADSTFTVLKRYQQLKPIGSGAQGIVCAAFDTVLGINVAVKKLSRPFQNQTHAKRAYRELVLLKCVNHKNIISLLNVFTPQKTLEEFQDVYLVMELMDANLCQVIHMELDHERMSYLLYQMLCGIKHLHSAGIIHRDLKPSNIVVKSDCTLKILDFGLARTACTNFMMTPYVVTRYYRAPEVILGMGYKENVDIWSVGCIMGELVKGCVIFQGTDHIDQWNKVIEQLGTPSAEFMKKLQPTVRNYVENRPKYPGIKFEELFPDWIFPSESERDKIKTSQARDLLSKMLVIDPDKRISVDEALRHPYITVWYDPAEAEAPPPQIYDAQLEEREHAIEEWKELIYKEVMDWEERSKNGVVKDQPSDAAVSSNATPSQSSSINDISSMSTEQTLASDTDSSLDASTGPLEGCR
# Sequence of MKK2 (P36507 whole entry, species assumed): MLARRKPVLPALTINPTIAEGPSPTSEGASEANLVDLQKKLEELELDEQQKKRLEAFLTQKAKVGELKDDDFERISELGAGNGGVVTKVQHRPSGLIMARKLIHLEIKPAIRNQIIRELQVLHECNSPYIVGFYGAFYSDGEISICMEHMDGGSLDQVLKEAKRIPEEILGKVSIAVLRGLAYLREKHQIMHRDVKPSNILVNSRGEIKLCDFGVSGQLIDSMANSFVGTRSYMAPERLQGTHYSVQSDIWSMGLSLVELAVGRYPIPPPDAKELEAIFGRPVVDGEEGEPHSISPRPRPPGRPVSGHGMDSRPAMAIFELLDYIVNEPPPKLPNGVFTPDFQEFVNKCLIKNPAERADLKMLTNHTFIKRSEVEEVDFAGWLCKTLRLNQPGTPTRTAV
# Sequence of TrkA (P04629 33-796, species assumed): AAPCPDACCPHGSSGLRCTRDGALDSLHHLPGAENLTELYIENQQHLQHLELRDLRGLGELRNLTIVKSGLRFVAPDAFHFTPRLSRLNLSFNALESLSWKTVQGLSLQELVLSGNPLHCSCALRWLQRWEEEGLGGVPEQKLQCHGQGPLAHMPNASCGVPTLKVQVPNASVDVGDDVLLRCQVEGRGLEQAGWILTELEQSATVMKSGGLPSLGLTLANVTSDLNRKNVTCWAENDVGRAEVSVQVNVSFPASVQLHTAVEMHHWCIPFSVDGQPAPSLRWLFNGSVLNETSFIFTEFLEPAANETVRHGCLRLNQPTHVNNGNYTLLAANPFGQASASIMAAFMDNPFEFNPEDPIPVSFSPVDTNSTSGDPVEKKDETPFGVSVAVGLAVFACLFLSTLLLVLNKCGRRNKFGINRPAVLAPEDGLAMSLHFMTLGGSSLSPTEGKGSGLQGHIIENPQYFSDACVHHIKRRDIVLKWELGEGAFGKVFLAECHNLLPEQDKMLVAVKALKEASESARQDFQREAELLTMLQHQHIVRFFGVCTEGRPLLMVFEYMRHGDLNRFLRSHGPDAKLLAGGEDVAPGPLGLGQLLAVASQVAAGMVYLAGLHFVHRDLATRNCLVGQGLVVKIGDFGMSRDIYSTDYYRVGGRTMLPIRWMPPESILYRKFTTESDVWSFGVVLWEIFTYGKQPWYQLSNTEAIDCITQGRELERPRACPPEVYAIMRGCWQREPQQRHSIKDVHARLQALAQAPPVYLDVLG
# Sequence of PAK6 (Q9NQU5 whole entry, species assumed): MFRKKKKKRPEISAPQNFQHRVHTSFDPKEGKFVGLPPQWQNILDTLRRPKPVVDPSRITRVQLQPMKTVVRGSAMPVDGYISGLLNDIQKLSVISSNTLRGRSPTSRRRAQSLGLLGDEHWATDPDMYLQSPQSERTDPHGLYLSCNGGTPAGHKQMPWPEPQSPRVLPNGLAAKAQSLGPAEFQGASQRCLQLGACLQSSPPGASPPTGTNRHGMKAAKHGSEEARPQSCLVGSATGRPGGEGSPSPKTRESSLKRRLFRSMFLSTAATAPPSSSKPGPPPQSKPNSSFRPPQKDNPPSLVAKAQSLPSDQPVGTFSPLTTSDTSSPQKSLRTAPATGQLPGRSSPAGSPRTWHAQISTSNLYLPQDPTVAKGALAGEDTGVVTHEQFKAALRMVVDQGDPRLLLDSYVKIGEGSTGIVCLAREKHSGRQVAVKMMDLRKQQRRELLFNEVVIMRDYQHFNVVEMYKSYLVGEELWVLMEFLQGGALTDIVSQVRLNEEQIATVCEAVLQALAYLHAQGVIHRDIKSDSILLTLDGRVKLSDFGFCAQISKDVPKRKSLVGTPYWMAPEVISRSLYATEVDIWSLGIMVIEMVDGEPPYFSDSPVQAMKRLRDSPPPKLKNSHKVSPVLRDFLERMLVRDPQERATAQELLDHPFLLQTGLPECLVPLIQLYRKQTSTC
# Sequence of PAK2 (Q13177 whole entry, species assumed): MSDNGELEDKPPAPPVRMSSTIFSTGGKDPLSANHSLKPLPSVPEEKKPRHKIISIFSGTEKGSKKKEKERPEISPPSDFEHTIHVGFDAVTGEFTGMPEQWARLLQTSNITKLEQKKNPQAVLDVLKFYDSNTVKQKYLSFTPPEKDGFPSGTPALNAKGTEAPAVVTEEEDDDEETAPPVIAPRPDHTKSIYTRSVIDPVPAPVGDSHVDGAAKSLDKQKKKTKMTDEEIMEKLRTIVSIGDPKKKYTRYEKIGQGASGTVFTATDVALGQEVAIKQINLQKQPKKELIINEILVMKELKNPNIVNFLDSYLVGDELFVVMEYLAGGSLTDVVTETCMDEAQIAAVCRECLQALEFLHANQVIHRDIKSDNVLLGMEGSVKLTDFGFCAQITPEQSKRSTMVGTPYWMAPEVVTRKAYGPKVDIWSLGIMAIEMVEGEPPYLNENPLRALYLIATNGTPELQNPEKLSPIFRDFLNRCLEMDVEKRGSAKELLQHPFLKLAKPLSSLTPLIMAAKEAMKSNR
# Sequence of IRR (P14616 27-1297, species assumed): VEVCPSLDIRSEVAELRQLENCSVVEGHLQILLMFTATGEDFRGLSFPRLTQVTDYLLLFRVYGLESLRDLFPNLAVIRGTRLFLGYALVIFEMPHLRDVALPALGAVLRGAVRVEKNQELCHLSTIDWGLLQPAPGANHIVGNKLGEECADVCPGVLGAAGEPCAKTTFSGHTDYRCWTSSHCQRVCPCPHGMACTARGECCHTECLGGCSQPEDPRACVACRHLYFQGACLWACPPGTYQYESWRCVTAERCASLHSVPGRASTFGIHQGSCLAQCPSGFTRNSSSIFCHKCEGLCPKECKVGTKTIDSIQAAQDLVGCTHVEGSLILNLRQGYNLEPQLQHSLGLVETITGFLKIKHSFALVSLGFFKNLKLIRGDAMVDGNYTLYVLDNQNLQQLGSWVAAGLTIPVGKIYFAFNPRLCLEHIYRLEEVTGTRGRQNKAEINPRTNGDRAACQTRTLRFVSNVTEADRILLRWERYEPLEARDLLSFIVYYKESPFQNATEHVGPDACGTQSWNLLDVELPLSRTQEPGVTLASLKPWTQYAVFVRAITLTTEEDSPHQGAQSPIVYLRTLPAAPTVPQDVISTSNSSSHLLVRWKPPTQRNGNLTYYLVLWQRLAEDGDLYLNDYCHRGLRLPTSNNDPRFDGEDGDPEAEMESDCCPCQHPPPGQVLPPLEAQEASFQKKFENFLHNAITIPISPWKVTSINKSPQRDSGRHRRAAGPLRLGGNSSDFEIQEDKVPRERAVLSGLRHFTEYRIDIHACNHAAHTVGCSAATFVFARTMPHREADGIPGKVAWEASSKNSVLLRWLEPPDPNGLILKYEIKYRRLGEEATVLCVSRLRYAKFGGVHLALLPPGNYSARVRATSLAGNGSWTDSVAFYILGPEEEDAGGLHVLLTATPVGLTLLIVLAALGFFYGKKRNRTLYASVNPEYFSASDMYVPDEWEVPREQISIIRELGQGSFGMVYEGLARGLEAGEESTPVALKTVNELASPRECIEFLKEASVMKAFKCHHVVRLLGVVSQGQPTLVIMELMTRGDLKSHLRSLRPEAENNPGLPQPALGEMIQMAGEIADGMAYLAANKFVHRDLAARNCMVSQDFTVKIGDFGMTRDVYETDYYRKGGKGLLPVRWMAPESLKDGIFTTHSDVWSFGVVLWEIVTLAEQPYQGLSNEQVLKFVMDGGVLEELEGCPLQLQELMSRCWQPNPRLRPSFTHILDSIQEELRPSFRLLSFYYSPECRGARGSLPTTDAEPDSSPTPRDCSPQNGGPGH
# Sequence of IRAK1 (P51617 whole entry, species assumed): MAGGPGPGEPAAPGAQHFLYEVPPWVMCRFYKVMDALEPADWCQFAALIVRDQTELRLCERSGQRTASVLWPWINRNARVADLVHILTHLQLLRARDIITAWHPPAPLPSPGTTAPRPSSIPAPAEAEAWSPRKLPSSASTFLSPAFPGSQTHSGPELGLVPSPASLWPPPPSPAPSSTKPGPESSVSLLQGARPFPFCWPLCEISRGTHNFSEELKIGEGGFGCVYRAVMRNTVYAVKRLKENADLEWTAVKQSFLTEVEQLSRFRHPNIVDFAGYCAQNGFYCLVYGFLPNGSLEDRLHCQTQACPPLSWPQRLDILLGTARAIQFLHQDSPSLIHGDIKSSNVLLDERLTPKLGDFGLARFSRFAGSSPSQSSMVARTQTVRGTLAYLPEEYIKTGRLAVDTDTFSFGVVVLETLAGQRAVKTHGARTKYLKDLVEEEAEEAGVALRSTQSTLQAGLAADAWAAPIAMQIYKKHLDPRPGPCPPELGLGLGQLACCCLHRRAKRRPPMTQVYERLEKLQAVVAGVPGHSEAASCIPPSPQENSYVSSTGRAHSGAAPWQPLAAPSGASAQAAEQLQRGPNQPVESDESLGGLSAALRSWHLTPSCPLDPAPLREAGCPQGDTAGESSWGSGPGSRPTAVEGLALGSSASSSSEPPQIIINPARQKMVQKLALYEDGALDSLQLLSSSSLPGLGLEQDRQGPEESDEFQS
SMILES,"residual kinase activity, TrkA (TrkA; [1])","residual kinase activity, MKK2 (MKK2; [1])","residual kinase activity, p38d MAPK (p38d MAPK; [1])","residual kinase activity, JNK2 (JNK2; [1])",further results
"CC(=O)Nc1nc2cc(O)ccc2s1 [Compound 01-66, N-(5-hydroxybenzo[d]thiazol-2-yl)acetamide]",–,–,–,–,"remaining activity at 100 µM (IRAK1): 29%; residual kinase activity, PHK (PHK): 49; remaining activity at 100 µM (DDR2): 65%; remaining activity at 100 µM (Aurora A): 87%; remaining activity at 100 µM (MKK2): 42%; remaining activity at 100 µM (IRR): 30%; remaining activity at 100 µM (PAK6): 90%; remaining activity at 100 µM (p38d MAPK): 70%; remaining activity at 100 µM (JNK2): 63%; remaining activity at 100 µM (IKKe): 68%; remaining activity at 100 µM (TrkA): 57%; remaining activity at 100 µM (PAK2): 93%"
COC(=O)c1cccc(C(=O)Nc2nc3ccc(F)cc3s2)c1 [Compound 03-110],111,–,–,–,–
COc1ccc2sc(NC(=O)c3ccc(NC(C)=O)cc3)nc2c1 [MS:LY-2-77],–,95,98,99,–
CC(=O)Nc1nc2ccc(F)cc2s1 [Compound 03-94],58,–,–,–,–
COc1cccc(NC(=O)Nc2nc3cc(O)ccc3s2)c1 [Compound 13-62],–,–,–,–,"residual kinase activity, TrkA (TrkA; [2]): 9"
COc1ccc2sc(NC(=O)c3cccc(C(N)=O)c3)nc2c1 [Compound 03-113],87,–,–,–,–
"COC(=O)c1cccc(C(=O)Nc2nc3ccc(C(F)(F)F)cc3s2)c1 [Compound 03-105, Methyl 3-((6-(trifluoromethyl)benzo[d]thiazol-2-yl)carbamoyl)benzoate]",–,–,–,–,remaining activity at 100 µM (TrkA): 82%
COc1ccc2sc(NC(=O)c3cccc(NC(C)=O)c3)nc2c1 [MS:LY-2-85],–,80,72,100,–
CC(=O)Nc1ccccc1C(=O)Nc1nc2ccc(O)cc2s1 [Compound 08-39],–,78,67,93,–
O=C(Nc1nc2cc(O)ccc2s1)c1ccccc1 [Compound 03-102],38,–,–,–,–
COc1ccc2sc(NC(=O)c3ccccc3)nc2c1 [Compound 03-95],35,–,–,–,–
CC(=O)Nc1cccc(C(=O)Nc2nc3ccc(O)cc3s2)c1 [Compound 03-58],–,86,75,99,–
CC(=O)NC(C)C(=O)Nc1nc2ccc(C(F)(F)F)cc2s1 (centres unmarked) [Compound 03-80],–,75,102,87,–
CC(=O)Nc1nc2ccc([N+](=O)[O-])cc2s1 [Compound 13-10],–,–,–,–,remaining activity at 100 µM (TrkA; [1]): 98%
CC(=O)Nc1ccc(C(=O)Nc2nc3cc(O)ccc3s2)cc1 [MS:LY-2-87],–,73,75,105,–
CC(=O)Nc1cccc(C(=O)Nc2nc3cc(O)ccc3s2)c1 [MS:LY-2-89],–,47,70,93,–
O=C(Nc1nc2ccc(C(F)(F)F)cc2s1)c1ccccc1 [Compound 03-99],84,–,–,–,–
COc1ccc2nc(C(=O)Nc3ccccc3)sc2c1 [Compound 13-03],–,–,–,–,"residual kinase activity, TrkA (TrkA; [2]): 55"
COc1ccc2nc(NC(=O)c3ccccc3)sc2c1 [Compound 03-98],60,–,–,–,–
N#Cc1ccc2nc(NC(=O)c3ccccc3)sc2c1 [Compound 03-106],66,–,–,–,–
COC(=O)c1cccc(C(=O)Nc2nc3cc(OC)ccc3s2)c1 [Compound 03-108],85,–,–,–,–
O=C(Nc1nc2ccc(F)cc2s1)c1ccccc1 [Compound 03-92],74,–,–,–,–
CC(=O)Nc1nc2ccc(O)cc2s1 [Compound 01-71],–,–,–,–,"remaining activity at 100 µM (IRAK1; [1]): 26%; residual kinase activity, PHK (PHK): 47; remaining activity at 100 µM (DDR2; [1]): 56%; remaining activity at 100 µM (Aurora A; [1]): 68%; remaining activity at 100 µM (MKK2; [1]): 48%; remaining activity at 100 µM (IRR; [1]): 34%; remaining activity at 100 µM (PAK6; [1]): 81%; remaining activity at 100 µM (p38d MAPK; [1]): 43%; remaining activity at 100 µM (JNK2; [1]): 82%; remaining activity at 100 µM (IKKe; [1]): 58%; remaining activity at 100 µM (TrkA; [1]): 42%; remaining activity at 100 µM (PAK2; [1]): 102%"

# Reference: patent US10231954B2, “Neurodegenerative therapies” (LYTIX BIOPHARMA AS, priority 2014, dated 2019)
